Legend:
[1] = target: T1, Cytochrome P450 1A2 (Homo sapiens, UniProt P05177); details: bti-tn-5b1-4; note: in other assays of this panel Not Active means under 50% inhibition at 10 µM
T1 sequence (P05177 whole entry): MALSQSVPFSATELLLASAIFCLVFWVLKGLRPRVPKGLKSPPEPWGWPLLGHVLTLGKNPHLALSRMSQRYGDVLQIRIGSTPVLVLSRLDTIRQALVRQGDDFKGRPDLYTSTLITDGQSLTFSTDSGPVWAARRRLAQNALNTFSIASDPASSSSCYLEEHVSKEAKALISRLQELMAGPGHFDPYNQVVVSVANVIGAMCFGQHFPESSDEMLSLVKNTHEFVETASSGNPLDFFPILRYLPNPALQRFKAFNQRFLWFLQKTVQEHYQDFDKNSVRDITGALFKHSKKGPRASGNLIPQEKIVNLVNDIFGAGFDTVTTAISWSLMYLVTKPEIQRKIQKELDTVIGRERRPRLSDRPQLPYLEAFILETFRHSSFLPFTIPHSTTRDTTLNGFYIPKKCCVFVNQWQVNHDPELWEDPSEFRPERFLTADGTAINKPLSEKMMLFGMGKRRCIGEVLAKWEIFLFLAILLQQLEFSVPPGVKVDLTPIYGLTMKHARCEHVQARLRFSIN

[2] = target: Melanocortin receptor 5 (Homo sapiens, UniProt P33032); type: cell membranes, Membrane; details: hek293; note: in other assays of this panel Not Active means under 50% inhibition at 10 µM
Chain of Melanocortin receptor 5 (P33032 whole entry): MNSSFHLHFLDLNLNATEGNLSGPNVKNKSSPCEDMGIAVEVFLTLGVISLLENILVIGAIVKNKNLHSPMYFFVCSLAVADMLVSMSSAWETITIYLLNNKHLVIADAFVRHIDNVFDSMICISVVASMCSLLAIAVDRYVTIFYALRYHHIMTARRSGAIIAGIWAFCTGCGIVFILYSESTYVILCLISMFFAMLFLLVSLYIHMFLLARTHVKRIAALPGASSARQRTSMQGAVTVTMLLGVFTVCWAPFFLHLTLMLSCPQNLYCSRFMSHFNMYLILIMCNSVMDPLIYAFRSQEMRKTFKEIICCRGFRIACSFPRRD

[3] = target: Acetylcholinesterase (Homo sapiens, UniProt P22303); test: DRUGMATRIX: Acetylcholinesterase enzyme inhibition (substrate: acetylthiocholine); type: cell-based, HEK293; details: hek293; Not Active = under 50% inhibition at 10 µM
Chain of Acetylcholinesterase (P22303 whole entry): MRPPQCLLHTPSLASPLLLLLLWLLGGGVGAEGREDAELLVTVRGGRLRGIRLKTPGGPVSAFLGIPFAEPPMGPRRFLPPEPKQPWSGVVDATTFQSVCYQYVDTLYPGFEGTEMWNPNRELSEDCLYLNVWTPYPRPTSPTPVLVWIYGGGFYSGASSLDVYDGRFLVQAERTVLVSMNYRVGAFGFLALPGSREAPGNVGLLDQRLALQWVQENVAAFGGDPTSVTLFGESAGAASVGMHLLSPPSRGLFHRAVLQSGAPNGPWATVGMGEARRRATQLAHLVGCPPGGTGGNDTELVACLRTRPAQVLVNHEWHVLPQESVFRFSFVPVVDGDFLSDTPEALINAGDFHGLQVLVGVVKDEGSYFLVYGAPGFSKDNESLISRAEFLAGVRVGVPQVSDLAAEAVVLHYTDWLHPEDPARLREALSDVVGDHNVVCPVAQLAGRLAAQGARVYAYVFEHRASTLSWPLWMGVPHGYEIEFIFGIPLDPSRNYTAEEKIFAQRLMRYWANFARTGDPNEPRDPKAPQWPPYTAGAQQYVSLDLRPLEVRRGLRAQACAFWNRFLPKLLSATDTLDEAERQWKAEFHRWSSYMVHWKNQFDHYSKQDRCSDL

[4] = target: T2, Type-2 angiotensin II receptor (Homo sapiens, UniProt P50052); type: cell-based; details: cho-k1; note: in other assays of this panel Not Active means under 50% inhibition at 10 µM
T2 sequence (P50052 whole entry): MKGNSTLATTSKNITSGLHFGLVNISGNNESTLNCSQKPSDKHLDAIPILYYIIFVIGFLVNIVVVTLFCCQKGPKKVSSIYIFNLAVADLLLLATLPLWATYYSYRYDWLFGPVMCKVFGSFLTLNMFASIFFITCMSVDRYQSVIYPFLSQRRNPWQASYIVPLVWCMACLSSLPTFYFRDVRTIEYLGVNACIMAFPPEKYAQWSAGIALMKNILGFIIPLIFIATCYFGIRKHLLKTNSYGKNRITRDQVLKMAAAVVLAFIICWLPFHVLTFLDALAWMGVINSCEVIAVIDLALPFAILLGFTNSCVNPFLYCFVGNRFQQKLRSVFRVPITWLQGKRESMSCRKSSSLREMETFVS

[5] = target: T3, Alpha-1B adrenergic receptor (Rattus norvegicus, UniProt P15823); test: DRUGMATRIX: Alpha-1B adrenergic receptor radioligand binding (ligand: prazosin); type: cell membranes, Wistar, Liver, Membrane; details: Not Active = under 50% inhibition at 10 µM
T3 sequence (P15823 whole entry): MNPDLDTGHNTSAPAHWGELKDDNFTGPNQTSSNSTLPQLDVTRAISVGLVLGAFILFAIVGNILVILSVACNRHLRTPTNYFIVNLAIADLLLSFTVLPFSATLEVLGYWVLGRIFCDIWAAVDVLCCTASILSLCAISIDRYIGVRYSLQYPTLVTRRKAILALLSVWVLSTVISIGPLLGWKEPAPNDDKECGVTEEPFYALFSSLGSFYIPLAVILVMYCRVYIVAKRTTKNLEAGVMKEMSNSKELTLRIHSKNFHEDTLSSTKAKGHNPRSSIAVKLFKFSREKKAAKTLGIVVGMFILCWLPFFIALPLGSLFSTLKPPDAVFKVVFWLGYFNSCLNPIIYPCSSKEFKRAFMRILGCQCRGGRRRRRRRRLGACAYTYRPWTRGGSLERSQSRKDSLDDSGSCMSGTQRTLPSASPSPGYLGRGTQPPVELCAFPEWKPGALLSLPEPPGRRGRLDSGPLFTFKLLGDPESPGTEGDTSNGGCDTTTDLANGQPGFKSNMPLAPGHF

[6] = DRUGMATRIX: Platelet-Derived Growth Factor (PDGF) radioligand binding (ligand: [125I] PDGF); type: cell-based; details: nih3t3; Not Active = under 50% inhibition at 10 µM
[7] = DRUGMATRIX: Interleukin IL-1 radioligand binding (ligand: [125I] interleukin 1beta); type: cell membranes, Membrane; details: nih3t3; Not Active = under 50% inhibition at 10 µM
[8] = DRUGMATRIX: Glutamate, NMDA, Agonism radioligand binding (ligand: [3H] CGP-39653); type: cell membranes, Rattus norvegicus, Wistar, Cerebral cortex, Membrane; details: Not Active = under 50% inhibition at 10 µM

CCOC(=O)[C@H](CCc1ccccc1)N[C@H]1CCc2ccccc2N(CC(=O)O)C1=O [BENAZEPRIL]
Not Active: IC50 [1] | Ki [1] | IC50 [2] | IC50 [3] | IC50 [4] | IC50 [5] | IC50 [6] | Ki [6] | IC50 [7] | Ki [7] | IC50 [8] | Ki [8]

Nc1c(CC(=O)O)cccc1C(=O)c1ccc(Br)cc1 [BROMFENAC]
Not Active: IC50 [1] | Ki [1] | IC50 [2] | IC50 [3] | IC50 [4] | IC50 [5] | IC50 [6] | Ki [6] | IC50 [7] | Ki [7] | IC50 [8] | Ki [8]

CCCCN1CCCCC1C(=O)Nc1c(C)cccc1C.Cl (centres undefined) [BUPIVACAINE HYDROCHLORIDE]
Not Active: IC50 [1] | Ki [1] | IC50 [2] | IC50 [3] | IC50 [4] | IC50 [5] | IC50 [6] | Ki [6] | IC50 [7] | Ki [7] | IC50 [8] | Ki [8]

O=C1CC2(CCCC2)CC(=O)N1CCCCN1CCN(c2ncccn2)CC1 [BUSPIRONE]
Not Active: IC50 [1] | Ki [1] | IC50 [2] | IC50 [3] | IC50 [4] | IC50 [5] | IC50 [6] | Ki [6] | IC50 [7] | Ki [7] | IC50 [8] | Ki [8]

C[C@@]12C(=O)OC(=O)[C@]1(C)[C@H]1CC[C@@H]2O1 [CANTHARIDIN]
Not Active: IC50 [1] | Ki [1] | IC50 [2] | IC50 [3] | IC50 [4] | IC50 [5] | IC50 [6] | Ki [6] | IC50 [7] | Ki [7] | IC50 [8] | Ki [8]

ClC(Cl)Cl [CHLOROFORM]
Not Active: IC50 [1] | Ki [1] | IC50 [2] | IC50 [3] | IC50 [4] | IC50 [5] | IC50 [6] | Ki [6] | IC50 [7] | Ki [7] | IC50 [8] | Ki [8]

C=C1CC[C@H](O)C/C1=C/C=C1\CCC[C@]2(C)[C@@H]([C@H](C)CCCC(C)C)CC[C@@H]12 [CHOLECALCIFEROL]
Not Active: IC50 [1] | Ki [1] | IC50 [2] | IC50 [3] | IC50 [4] | IC50 [5] | IC50 [6] | Ki [6] | IC50 [7] | Ki [7] | IC50 [8] | Ki [8]

Source: ChEMBL document CHEMBL1909046, “DrugMatrix in vitro pharmacology data”
